Experimental data from PMC3566180, “Glucose 6P Binds and Activates HlyIIR to Repress Bacillus cereus Haemolysin hlyII Gene Expression” (PLoS ONE, 2013).

Columns and labels:
[1] = biological target: T1, HlyIIR (Bacillus thuringiensis, UniProt A0A1W6WQG6); test: isothermal titration calorimetry (ITC200, […]°C, […] purified HlyIIR, N = […]); format: binding
T1 construct: gene CAB88_17715; hlyIIR gene amplified from the Bt407 chromosome, GST-tagged (pGEX6P1), tag removed with Precission protease

[2] = tested on: HlyIIR (Bacillus cereus Bt407); test: ITC; settings: ITC200, 20 C, protein storage buffer (composition and pH not given), 28 uM HlyIIR in cell, 1.25 uM DNA injected (20 x 2 ul)

T1 sequence (A0A1W6WQG6 entry or part of it): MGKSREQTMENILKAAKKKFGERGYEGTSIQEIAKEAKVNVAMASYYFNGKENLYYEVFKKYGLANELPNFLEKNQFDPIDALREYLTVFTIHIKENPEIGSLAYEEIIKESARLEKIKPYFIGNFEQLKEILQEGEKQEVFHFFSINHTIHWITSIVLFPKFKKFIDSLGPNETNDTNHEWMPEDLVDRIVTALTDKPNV

Molecule	Kd [1] [µM]	Kd [2] [µM]
O=P(O)(O)OC[C@H]1OC(O)[C@H](O)[C@@H](O)[C@@H]1O (some centres unmarked) [glucose 6P]	~10.8	
hlyII promoter fragment (220 bp)		0.11
